Experimental data from ChEMBL document CHEMBL1140734, “Identification of novel, water-soluble, 2-amino-N-pyrimidin-4-yl acetamides as A2A receptor antagonists with in vivo efficacy” (J Med Chem, 2008).
≈ marks a conversion by molar mass, not a printed value.

Legend:
Homo sapiens = species: Homo sapiens; experiment: Selectivity for human adenosine A2A receptor over human adenosine A1 receptor
[1] = Metabolic stability assessed as intrinsic clearance in human liver microsomes; format: ADME, Microsome
[2] = Solubility in water; format: physicochemical
[3] = Lipophilicity, log D of the compound; format: physicochemical; conditions: octanol/water
[4] = Dissociation constant, pKa of the compound; format: physicochemical
[5] = Oral bioavailability in rat at 10 mg/kg; format: ADME, organism-based; conditions: in vivo
[6] = AUC in rat at 10 mg/kg, po; format: ADME, organism-based; set-up: dose 10 mg/kg, route oral; conditions: plasma
Adenosine receptor A2b = biological target: T1, Adenosine receptor A2b (Homo sapiens, UniProt P29275); experiment: Displacement of [3H]MRS1754 from human adenosine A2B receptor
T1 sequence (P29275 whole entry): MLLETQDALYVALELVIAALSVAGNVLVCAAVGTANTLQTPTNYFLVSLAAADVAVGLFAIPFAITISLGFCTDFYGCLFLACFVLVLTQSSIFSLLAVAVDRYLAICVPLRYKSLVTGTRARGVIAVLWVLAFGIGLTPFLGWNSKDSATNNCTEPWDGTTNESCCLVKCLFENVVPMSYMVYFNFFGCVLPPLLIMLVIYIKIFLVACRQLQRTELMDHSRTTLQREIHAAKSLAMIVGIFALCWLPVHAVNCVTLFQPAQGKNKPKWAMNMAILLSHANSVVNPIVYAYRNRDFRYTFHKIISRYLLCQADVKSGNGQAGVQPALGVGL

Adenosine receptor A3 = biological target: T2, Adenosine receptor A3 (Homo sapiens, UniProt P0DMS8); experiment: Displacement of [125I]AB-MECA from human adenosine A3 receptor
T2 sequence (P0DMS8 whole entry): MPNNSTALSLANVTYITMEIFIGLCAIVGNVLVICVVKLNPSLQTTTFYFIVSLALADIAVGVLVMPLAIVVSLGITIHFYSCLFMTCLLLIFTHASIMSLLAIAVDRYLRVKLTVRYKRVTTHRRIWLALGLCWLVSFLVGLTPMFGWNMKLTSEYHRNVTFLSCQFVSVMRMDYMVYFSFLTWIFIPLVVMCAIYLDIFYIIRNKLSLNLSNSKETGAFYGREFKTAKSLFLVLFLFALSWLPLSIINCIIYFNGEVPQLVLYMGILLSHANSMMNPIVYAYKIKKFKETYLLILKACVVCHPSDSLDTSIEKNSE

[7] = Drug level in rat brain at 10 mg/kg, po after 2 hrs; format: ADME, organism-based; set-up: dose 10 mg/kg, route oral; conditions: read-out: Drug uptake
Adenosine receptor A2a [8] = biological target: Adenosine receptor A2a (Homo sapiens, UniProt P29274); experiment: biochemical
Description: Displacement of [3H]ZM-241385 from human recombinant adenosine A2A receptor expressed in HEK293 cells

Adenosine receptor A1 = biological target: T3, Adenosine receptor A1 (Homo sapiens, UniProt P30542); experiment: biochemical
T3 sequence (P30542 whole entry): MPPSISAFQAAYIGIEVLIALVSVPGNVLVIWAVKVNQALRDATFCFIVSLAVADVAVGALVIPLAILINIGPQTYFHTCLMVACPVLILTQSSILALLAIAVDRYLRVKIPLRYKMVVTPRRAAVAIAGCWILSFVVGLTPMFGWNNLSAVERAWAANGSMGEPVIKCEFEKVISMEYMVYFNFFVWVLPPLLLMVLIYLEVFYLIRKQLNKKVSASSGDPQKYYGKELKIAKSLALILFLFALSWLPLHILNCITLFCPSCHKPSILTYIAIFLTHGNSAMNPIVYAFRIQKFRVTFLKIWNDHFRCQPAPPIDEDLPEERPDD
Description: Displacement of [3H]DPCPX from human recombinant adenosine A1 receptor expressed in HEK293 cells

Adenosine receptor A2a [9] = biological target: Adenosine receptor A2a (Rattus norvegicus, UniProt P30543); experiment: biochemical
Description: Displacement of [3H]ZM241385 from rat recombinant adenosine A2A receptor expressed in CHO cells

[10] = Solubility in PBS at pH 7.4; format: physicochemical

Chain of Adenosine receptor A2a (Homo sapiens, UniProt P29274) (P29274 whole entry): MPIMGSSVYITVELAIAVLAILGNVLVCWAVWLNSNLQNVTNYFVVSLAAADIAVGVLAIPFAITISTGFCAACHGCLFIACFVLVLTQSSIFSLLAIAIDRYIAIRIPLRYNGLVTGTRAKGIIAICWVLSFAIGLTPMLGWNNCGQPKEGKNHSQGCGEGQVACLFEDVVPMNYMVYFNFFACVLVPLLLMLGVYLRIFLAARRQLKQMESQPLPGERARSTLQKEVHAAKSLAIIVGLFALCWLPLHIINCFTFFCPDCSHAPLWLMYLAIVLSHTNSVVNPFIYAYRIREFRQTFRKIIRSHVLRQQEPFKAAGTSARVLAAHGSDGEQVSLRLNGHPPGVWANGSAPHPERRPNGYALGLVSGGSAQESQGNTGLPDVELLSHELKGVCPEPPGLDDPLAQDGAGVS
Chain of Adenosine receptor A2a (Rattus norvegicus, UniProt P30543) (P30543 whole entry): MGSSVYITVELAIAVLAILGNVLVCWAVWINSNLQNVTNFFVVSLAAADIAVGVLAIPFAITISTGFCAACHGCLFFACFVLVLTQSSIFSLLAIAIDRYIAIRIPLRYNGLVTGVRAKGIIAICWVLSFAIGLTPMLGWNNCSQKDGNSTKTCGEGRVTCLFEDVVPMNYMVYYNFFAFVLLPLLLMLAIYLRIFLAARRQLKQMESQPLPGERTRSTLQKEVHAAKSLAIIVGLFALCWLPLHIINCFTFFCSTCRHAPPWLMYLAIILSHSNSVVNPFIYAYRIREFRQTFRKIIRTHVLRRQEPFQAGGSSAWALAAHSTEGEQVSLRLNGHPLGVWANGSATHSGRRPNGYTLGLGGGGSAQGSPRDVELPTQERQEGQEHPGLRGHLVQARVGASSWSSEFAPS

| Ratio Ki (Homo sapiens) | Ki (Adenosine receptor A1) [nM] | Structure (SMILES) | concentration at 2 h [7] [ng/g] | Ki (Adenosine receptor A2a [8]) [nM] | Ki (Adenosine receptor A2a [9]) [nM] | further results |
| --- | --- | --- | --- | --- | --- | --- |
| 99 | 266 | CN1CCN(CC(=O)Nc2cc(-n3cccn3)nc(-c3ccco3)n2)CC1 | 2700 | 2.7 | 26 | CLint scaled [1]: 6 mL/min/kg; solubility [2]: > 25000 µg/mL; logD [3]: 2.2; pKa [4]: 7.9; bioavailability [5]: 79%; AUC [6]: 2870 ng·h/mL; Ki (Adenosine receptor A2b): 35 nM; Ki (Adenosine receptor A3): 660 nM |
| 15 | 9.2 | CC(=O)Nc1cc(-n2cccn2)nc(-c2ccco2)n1 | – | – | – | – |
| 5 | 28 | CN(C)CC(=O)Nc1cc(-n2cccn2)nc(-c2ccco2)n1 | – | 5.2 | – | – |
| – | – | COCCOc1ccc(N2CCN(CCn3ncc4c3nc(N)n3nc(-c5ccco5)nc43)CC2)cc1 [PRELADENANT] | – | – | – | solubility ([10]; buffer): < 0.01 µg/mL |
| 20 | 56 | Nc1cc(-n2cccn2)nc(-c2ccco2)n1 | – | 2.9 | – | solubility ([10]; PBS, read-out: Solubility): 80 µg/mL (≈ 352 µM); CLint scaled [1]: 73 mL/min/kg |

| Structure (SMILES) | Ratio Ki (Homo sapiens) | Ki (Adenosine receptor A1) [nM] | concentration at 2 h [7] [ng/g] | Ki (Adenosine receptor A2a [8]) [nM] | Ki (Adenosine receptor A2a [9]) [nM] | further results |
| --- | --- | --- | --- | --- | --- | --- |
| CN1CCN(CC(=O)Nc2cc(-c3nccs3)nc(-c3ccco3)n2)CC1 | 238 | 218 | 3200 | 0.9 | 11 | – |
| O=C(CN1CCOCC1)Nc1cc(-n2cccn2)nc(-c2ccco2)n1 | 39 | 63 | – | 1.6 | – | – |
| Cc1cc(C)n(-c2cc(NC(=O)CN3CCN(C)CC3)nc(-c3ccco3)n2)n1 | 864 | 1730 | 600 | 2 | 14 | – |
